Data on 11 compounds can be found in PubChem BioAssay (NCI).

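Test compounds were applied to cells in 96-well plates for 48 hours at 5 doses. At the GI50, growth is halved. TGI: total growth inhibition.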 Some results are limits rather than exact numbers.

Among the test systems are CAKI-1 renal; IGROV1 ovarian; K-562 leukemia; M14 melanoma; SF-295 CNS; SN12C renal; SNB-19 CNS; TK-10 renal; NCI-H23 lung; CCRF-CEM leukemia.
Test in all cases: growth of human tumour cells (NCI), 48 h

Regarding `CC(=O)/C=C/C1=C(c2cc3ccccc3s2)c2ccccc2CC1`, the GI50 was 51.1 µM in the assay on CAKI-1 renal; 27.4 µM with IGROV1 ovarian; 15.2 µM in the assay on K-562 leukemia; 15.1 µM in the assay on M14 melanoma; 37000 nM in the assay on SF-295 CNS; 36.5 µM in the assay on SN12C renal. The values for the GI50 with SNB-19 CNS and with TK-10 renal were 50.7 µM and 61.1 µM, respectively. Moreover, the TGI in the assay with CAKI-1 renal is greater than 100 µM; with IGROV1 ovarian, greater than 100 µM; with K-562 leukemia it was greater than 100 µM; with M14 melanoma, 31.3 µM; with SF-295 CNS, greater than 100 µM; in the assay on SN12C renal it was greater than 100 µM. Further, the TGI with SNB-19 CNS and in the assay on TK-10 renal was greater than 100 µM each time.
In the case of `Brc1ccc([I+]c2ccc(Br)cc2)cc1`, the GI50 with CAKI-1 renal is 1.9 µM; with IGROV1 ovarian it was 1.06 µM; in the assay with M14 melanoma, 1.53 µM; with NCI-H23 lung, 1.11 µM; in the assay on SF-295 CNS it was 1700 nM; in the assay on SN12C renal, 1.6 µM. Moreover, the GI50 was 1.38 µM in the assay with SNB-19 CNS and 1.97 µM with TK-10 renal. For the same compound, the TGI in the assay on CAKI-1 renal came to 8.98 µM; with IGROV1 ovarian, 6.8 µM; in the assay on M14 melanoma, 5.14 µM; with NCI-H23 lung, 4.2 µM; with SF-295 CNS, 5.85 µM; in the assay on SN12C renal it was 4.26 µM. Further, the TGI in the assay on SNB-19 CNS was found to be 2.76 µM; with TK-10 renal, 13.3 µM.
For `O=C(COc1cccc(/C=C2\COc3ccccc3C2=O)c1)Nc1nccs1`, the GI50 in the assay with CAKI-1 renal was 1.61 µM; in the assay on CCRF-CEM leukemia, 1630 nM; in the assay with K-562 leukemia, 1.44 µM; in the assay with M14 melanoma, 1.85 µM; with NCI-H23 lung, 1.95 µM; with SF-295 CNS, 1730 nM. The GI50 in the assay on SN12C renal is 2.08 µM; in the assay on SNB-19 CNS, 9.93 µM; in the assay on TK-10 renal it was 3.05 µM. For the same compound, the TGI in the assay with CAKI-1 renal was found to be 3.56 µM; in the assay on CCRF-CEM leukemia it was 4.91 µM; with K-562 leukemia it was 29.2 µM; in the assay on M14 melanoma, 3.71 µM; in the assay on NCI-H23 lung, 3.94 µM; in the assay with SF-295 CNS it was 3.26 µM. In addition, the TGI is 5.25 µM in the assay with SN12C renal, 22.1 µM in the assay with SNB-19 CNS and 5.52 µM in the assay with TK-10 renal.
As for `COC(CCP(=O)(c1ccccc1)c1ccccc1)(C(=O)c1ccccc1)c1ccccc1` (stereo not given), the GI50 with CAKI-1 renal was 2.95 µM; in the assay with CCRF-CEM leukemia, 2270 nM; in the assay with IGROV1 ovarian, 8.06 µM; with M14 melanoma, 3.5 µM; with NCI-H23 lung it was 4.5 µM; in the assay with SF-295 CNS, 135 nM. The GI50 in the assay on SN12C renal is 5.23 µM; in the assay with SNB-19 CNS it was 5.75 µM; in the assay on TK-10 renal, 2.94 µM. For the same compound, the TGI came to 12.2 µM in the assay on CAKI-1 renal; 42 µM with CCRF-CEM leukemia; 25.4 µM with IGROV1 ovarian; 15.3 µM with M14 melanoma; 17.8 µM in the assay with NCI-H23 lung; 1.49 µM in the assay on SF-295 CNS. The results for the TGI in the assay with SN12C renal, in the assay on SNB-19 CNS and in the assay with TK-10 renal were 20 µM, 19.1 µM and 14.1 µM, respectively.
For the compound `O=C(O)/C(=C/c1ccccc1[N+](=O)[O-])c1ccccc1`, the TGI in the assay with CAKI-1 renal, in the assay with IGROV1 ovarian, in the assay with K-562 leukemia, in the assay with M14 melanoma, in the assay on NCI-H23 lung and in the assay on SF-295 CNS was greater than 100 µM throughout. Further, the TGI in the assay on SN12C renal, in the assay on SNB-19 CNS and in the assay with TK-10 renal was greater than 100 µM each time.
On to `CN1CCN(c2ccc3c4c(cccc24)C(=O)N(CCN2CCN(CCCN4CCN(CCN5C(=O)c6cccc7c(N8CCN(C)CC8)ccc(c67)C5=O)CC4)CC2)C3=O)CC1`, for which the GI50 with CAKI-1 renal is 8.21 µM; in the assay with M14 melanoma, 7.54 µM; in the assay on NCI-H23 lung it was 7.08 µM; with SF-295 CNS, 5750 nM; in the assay with SN12C renal, 4.02 µM; in the assay on SNB-19 CNS, 7.03 µM. The GI50 in the assay with TK-10 renal was 9.38 µM. Also, the TGI with CAKI-1 renal amounted to 16.8 µM; in the assay with M14 melanoma it was 14.2 µM; in the assay on NCI-H23 lung it was 13.8 µM; in the assay on SF-295 CNS, 13.7 µM; in the assay with SN12C renal, 11.2 µM; in the assay with SNB-19 CNS, 16.2 µM. For the same compound, in the assay on TK-10 renal, the TGI is 21.1 µM.
With `O=C(N/N=C1\CCc2ccccc2C1)N/N=C1\CCc2ccccc2C1`, the TGI with CAKI-1 renal, with CCRF-CEM leukemia, with K-562 leukemia, in the assay with M14 melanoma, in the assay on NCI-H23 lung and in the assay with SF-295 CNS was greater than 10 µM in each case. The TGI with SN12C renal, in the assay on SNB-19 CNS and with TK-10 renal was greater than 10 µM in each case.
Turning to `O=C1/C(=C/c2ccccc2Cl)N=C(c2ccccc2)N1Cc1ccco1`, the GI50 with CAKI-1 renal is 94.3 µM; in the assay on CCRF-CEM leukemia, 5350 nM; in the assay with K-562 leukemia, 24.2 µM; in the assay on M14 melanoma, 18.6 µM; in the assay with NCI-H23 lung, 40.5 µM; in the assay on SN12C renal it was 50.6 µM. In addition, the GI50 in the assay with SNB-19 CNS and in the assay with TK-10 renal was greater than 100 µM each time. In addition, the TGI was greater than 100 µM with CAKI-1 renal; greater than 100 µM in the assay with CCRF-CEM leukemia; greater than 100 µM in the assay on K-562 leukemia; 38.2 µM in the assay on M14 melanoma; greater than 100 µM with NCI-H23 lung; greater than 100 µM in the assay on SN12C renal. For the same compound, the TGI in the assay with SNB-19 CNS and in the assay with TK-10 renal was greater than 100 µM each time.
For the compound `Nc1ccc2c(c1)C(=O)c1c(F)cccc1-2`, the TGI with CAKI-1 renal, in the assay on CCRF-CEM leukemia, with M14 melanoma, with NCI-H23 lung, with SF-295 CNS and with SN12C renal was greater than 100 µM each time. The TGI in the assay with SNB-19 CNS and with TK-10 renal was greater than 100 µM throughout.
Turning to `O=S1(=O)CCN(Cc2ccccn2)CC1`, the TGI in the assay on CAKI-1 renal, with IGROV1 ovarian, in the assay with K-562 leukemia, with M14 melanoma, with NCI-H23 lung and in the assay with SF-295 CNS was greater than 100 µM each time. The TGI with SN12C renal, in the assay with SNB-19 CNS and with TK-10 renal was greater than 100 µM each time.
For the compound `N=C(c1ccccc1)N(O)C1CCCCC1`, the TGI with CAKI-1 renal, in the assay on M14 melanoma, in the assay on NCI-H23 lung, in the assay on SF-295 CNS, in the assay with SN12C renal and in the assay on SNB-19 CNS was greater than 100 µM each time. This compound registered a TGI in the assay with TK-10 renal greater than 100 µM.
